Experimental data as given in the OligoGym collection.
These antisense oligonucleotides have a phosphorothioate backbone; sugars and methylation of C are not fully specified.
Further: test concentration or dose not given here.

The sequences below were run against AKT1. Settings: ASO.
Work on GGCTTGAAGGGTGGGCTG yielded a remaining target (mRNA or protein) (fraction of control) of 0.59. In the case of AGCCAATGAAGGTGCCAT, the remaining target (mRNA or protein) (fraction of control) is reported as 0.33. With CTTTGACTTCTTTGACCC the remaining target (mRNA or protein) (fraction of control) was 0.32. With GCTGCTGTGTGCCTGCCA the remaining target (mRNA or protein) (fraction of control) was 0.62. In the case of TGCCATCATTCTTGAGGA, the remaining target (mRNA or protein) (fraction of control) is reported as 0.35. Sequence CCTAAGCCCCTGGTGACA has a remaining target (mRNA or protein) (fraction of control) of 0.85. For GGTCAGGTGGTGTGATGG, the remaining target (mRNA or protein) (fraction of control) was ≥ 1. With GTGCCGCAAAAGGTCTTC the remaining target (mRNA or protein) (fraction of control) was 0.34. Work on GCCACGATGACTTCCTTC yielded a remaining target (mRNA or protein) (fraction of control) of 0.4. Work on CTGGCTGACAGAGTGAGG yielded a remaining target (mRNA or protein) (fraction of control) of 0.41. TCAAAATACCTGGTGTCA showed a remaining target (mRNA or protein) (fraction of control) of 0.49. Work on AAAATACTAAAGTTGAAT yielded a remaining target (mRNA or protein) (fraction of control) of 0.75. With CAACCCTCCTTCACAATA the remaining target (mRNA or protein) (fraction of control) was 0.76. CAGGGAGTCAGGGAGGGC showed a remaining target (mRNA or protein) (fraction of control) of 0.87. CTCGCTGTCCACACACTC gave a remaining target (mRNA or protein) (fraction of control) of 0.39. Sequence CCGAAAGTGCCCTTGCCC has a remaining target (mRNA or protein) (fraction of control) of 0.44. CCCTGTGCCCTGTCCCAG was tested, and the remaining target (mRNA or protein) (fraction of control) was 0.45. CGGTCCTCGGAGAACACA was tested, and the remaining target (mRNA or protein) (fraction of control) was ≥ 1. Work on CATAATACACAATAACAA yielded a remaining target (mRNA or protein) (fraction of control) of 0.61. With GATAGTTTTCTTCCCTAC the remaining target (mRNA or protein) (fraction of control) was ≥ 1.

These sequences were tested against GNAI1. Settings: ASO.
CCGGGCTGAGTCACCAAA was tested, and the remaining target (mRNA or protein) (fraction of control) was 0.31. ATTTCCTTTGTGTCCTTT was tested, and the remaining target (mRNA or protein) (fraction of control) was 0.41. Sequence TAATAGTCTGTCATTCAG has a remaining target (mRNA or protein) (fraction of control) of 0.95. In the case of AAACTAAAGTCATAAATA, the remaining target (mRNA or protein) (fraction of control) is reported as ≥ 1. Sequence AGCCCTAATGATAGCAAT has a remaining target (mRNA or protein) (fraction of control) of 0.33. With TTTGAAAGTAAAATGGGT the remaining target (mRNA or protein) (fraction of control) was ≥ 1. CCACTATCTTTCCACAAT was tested, and the remaining target (mRNA or protein) (fraction of control) was 0.84. TAGATAAGGGCTGTAATG was tested, and the remaining target (mRNA or protein) (fraction of control) was 0.87. CAATTCCTGTAGTTTTCA showed a remaining target (mRNA or protein) (fraction of control) of 0.8. For CACATTCTTAGTATCTGT, the remaining target (mRNA or protein) (fraction of control) was 0.85. For TTTCCACAATCTCTTTAT, the remaining target (mRNA or protein) (fraction of control) was 0.92. AGAACAACTTTGGTCAAG showed a remaining target (mRNA or protein) (fraction of control) of 0.88. In the case of CAAAGCCATCACCCTAAA, the remaining target (mRNA or protein) (fraction of control) is reported as 0.43. ATAAAGCCTTCTTCAGCA gave a remaining target (mRNA or protein) (fraction of control) of 0.78. With TCCCCATAGCCCTAATGA the remaining target (mRNA or protein) (fraction of control) was 0.21. With TTATGTTATTTCCAAAGC the remaining target (mRNA or protein) (fraction of control) was 0.87. With TCACCAAAGTCTATCTTC the remaining target (mRNA or protein) (fraction of control) was ≥ 1. With GTTGAGTCGGGATGTAAT the remaining target (mRNA or protein) (fraction of control) was ≥ 1. AATCCTAAGTTGCCACTC showed a remaining target (mRNA or protein) (fraction of control) of 0.4. For GTATAATGGATGTATCTG, the remaining target (mRNA or protein) (fraction of control) was 0.86. CCTTCTGTTACTTTCAGT was tested, and the remaining target (mRNA or protein) (fraction of control) was 0.75. In the case of TCATCTTACTCCGCTCCA, the remaining target (mRNA or protein) (fraction of control) is reported as 0.66. For TCACCCTAAAATCCTAAG, the remaining target (mRNA or protein) (fraction of control) was ≥ 1. In the case of ACTGCTTTGTATTGTTTA, the remaining target (mRNA or protein) (fraction of control) is reported as 0.94. Work on TGATCCAAAGGCAGGTGT yielded a remaining target (mRNA or protein) (fraction of control) of 0.27. In the case of ATTCAAATAGTATGCTGC, the remaining target (mRNA or protein) (fraction of control) is reported as ≥ 1. With CATGAACATAAATAAAGC the remaining target (mRNA or protein) (fraction of control) was ≥ 1. In the case of TTAAGAACATTTCAATAA, the remaining target (mRNA or protein) (fraction of control) is reported as 0.99. In the case of TCATTTCTTCATCTTCAG, the remaining target (mRNA or protein) (fraction of control) is reported as ≥ 1. Work on TTCAACCTCCCCATAGCC yielded a remaining target (mRNA or protein) (fraction of control) of 0.81. In the case of TTCTGTCCAAGTCATTCA, the remaining target (mRNA or protein) (fraction of control) is reported as 0.64. Sequence AGTCTATCTTCAACCTCC has a remaining target (mRNA or protein) (fraction of control) of 0.92. In the case of CTCCTCTTCTGAATAACC, the remaining target (mRNA or protein) (fraction of control) is reported as 0.79. With CTTTTACCAGATTCACCA the remaining target (mRNA or protein) (fraction of control) was 0.96. Sequence TGTGTCCTTTCTTTTATT has a remaining target (mRNA or protein) (fraction of control) of 0.63. Work on AACCAGGTCGTAGTCACT yielded a remaining target (mRNA or protein) (fraction of control) of 0.45.
